Experimental data: patent publication US6979686B1, “Substituted pyrazoles as p38 kinase inhibitors” (Pharmacia Corporation, priority 2001, dated 2005)
Counter-ions that a name gives are not always drawn. Like-named read-outs stand apart in the source and are kept apart here. Each block holds one molecule with its values, some of them ahead of it.

Columns and labels:
[1] = tested on: human TNF, human whole blood stimulated with LPS; test: TNF inhibition: human whole blood assay; format: cell-based; conditions: for TNF Inhibition-Human Whole Blood Assay: Table 9, percentage, concentration not given
Procedure: TNF Inhibition: Human Whole Blood Assay
Human peripheral blood is obtained in heparinized tubes. A 190 μL aliquot of blood is placed in each well of a 96 well u-bottom plate. […] After one hour of incubation at 37° C., […] of lipopolysaccharide (Salmonella typhosa, Sigma) in phosphate buffered saline is added resulting in a final concentration of […]. After four to five hours of incubation at 37° C., the supernatants are harvested and assayed at 1:10 or 1:20 dilutions for human TNF using ELISA.
In vitro human whole blood assay data for measuring the ability of the compounds to inhibit TNF production in human whole blood stimulated with LPS are shown in the column identified as: • “Human Whole Blood IC50, μM or %Inhib@conc. (μM)”
(§1) In vitro p38 alpha kinase inhibitory data are shown in the column identified as “p38 alpha IC50 (μM)”. In vitro human whole blood assay data for measuring the ability of the compounds to inhibit TNF production in human whole blood stimulated with LPS are shown in the column identified as: “HWB IC50 (μM)”. In vivo assessment of the ability of the compounds to inhibit LPS-stimulated TNF-release in the rat is shown in the column identified as: “ratLPS/%Inh@dose(mg/kg)”, wherein the dose is in milligram per kilogram (mg/kg) administered by oral gavage, 4 hours before LPS challenge.

[2] = tested on: TNF-a, human peripheral blood mononuclear cells; test: LPS stimulation of human PBMs, TNF-a by ELISA; format: cell-based; conditions: Table 5, LPS-stimulated human PBM cells, TNF cell assay
Procedure: Method of Isolation of Human Peripheral Blood Mononuclear Cells:
Human whole blood was collected in Vacutainer tubes containing EDTA as an anticoagulant. A blood sample (7 ml) was carefully layered over 5 ml PMN Cell Isolation Medium (Robbins Scientific) in a 15 ml round bottom centrifuge tube. The sample was centrifuged at 450-500×g for 30-35 minutes in a swing out rotor at room temperature. After centrifugation, the top band of cells were removed and washed 3 times with PBS w/o calcium or magnesium. The cells were centrifuged at 400×g for 10 minutes at room temperature. The cells were resuspended in Macrophage Serum Free Medium (Gibco BRL) at a concentration of 2 million cells/ml.
LPS Stimulation of Human PBMs:
Compounds were dissolved in DMSO initially and diluted in TCM for a final concentration of 0.1% DMSO. LPS (Calbiochem, 20 ng/ml, final concentration) was then added at a volume of 0.010 ml. Cultures were incubated overnight at 37° C. Supernatants were then removed and tested by ELISA for TNF-a and IL1-b. Viability was analyzed using MTS. After 0.1 ml supernatant was collected, 0.020 ml MTS was added to remaining 0.1 ml cells.

human p38 kinase alpha = target: T1, human p38 kinase alpha (Homo sapiens, UniProt Q16539); test: p38 kinase in vitro assay, phosphorylation of biotinylated PHAS-I with 32P-ATP; format: biochemical; conditions: for P38 alpha kinase % inhib @ conc. (uM): @ 1.0 uM
T1 construct: GST (N, cleaved yes); made in house; host or cells: E. coli DH10B

[3] = tested on: TNF-α, U937 human histiocytic lymphoma cell line; test: LPS stimulation of TNF production by U937 cells; format: cell-based
Outline: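 U937 cells differentiated 24 h with 20 ng/ml PMA, rested 24-48 h, used at 2 million cells/ml. Compounds in 0.1% DMSO final; LPS (E. coli, 100 ng/ml final) stimulation for 4 h at 37° C. Released TNF-α measured by ELISA; IC50 (μM).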

[4] = tested on: TNF-α, rats challenged with LPS; test: Rat assay, LPS-stimulated TNF release; format: in vivo; conditions: for inhibition in vivo at 3 mg/kg / Rat LPS Model % inhib @ dose @ predose time: 3 mpk oral gavage, −4 h before LPS challenge; for inhibition in vivo at 3 mg/kg: read-out: Rat LPS Model % inhib @ dose @ predose time
Procedure: The efficacy of the novel compounds in blocking the production of TNF also was evaluated using a model based on rats challenged with LPS. Male Harlen Lewis rats [Sprague Dawley Co.] were used in this model. Each rat weighed approximately 300 g and was fasted overnight prior to testing. Compound administration was typically by oral gavage (although intraperitoneal, subcutaneous and intravenous administration were also used in a few instances) 1 to 24 hours prior to the LPS challenge. Rats were administered 30 μg/kg LPS [salmonella typhosa, Sigma Co.] intravenously via the tail vein. Blood was collected via heart puncture 1 hour after the LPS challenge. Serum samples were stored at −20° C. until quantitative analysis of TNF-α by Enzyme Linked-Immuno-Sorbent Assay (“ELISA”) [Biosource]. Additional details of the assay are set forth in Perretti, M., et al., Br. J. Pharmacol. (1993), 110, 868-874, which is incorporated by reference in this application.
In vivo assessment of the ability of the compounds to inhibit LPS-stimulated TNF release in the rat is shown in the column identified as: • “Rat LPS Model, % TNF inhib dose @ predose time” wherein in the dose is milligram per kilogram (mpk) administered by oral gavage and the predose time indicates the number of hours before LPS challenge when the compound is administered.
In vivo assessment of the ability of the compounds to inhibit LPS-stimulated TNF release in the rat is shown in the column identified as: • “Rat LPS Model % Inhibition@dose@predose time” wherein the dose is milligram per kilogram (mpk) administered by oral gavage and the predose time indicates the number of hours before LPS challenge when the compound is administered.
as §1

[5] = tested on: TNF alpha, BALB/c mice injected with LPS; test: Mouse model of LPS-induced TNF alpha production; format: in vivo; conditions: 30 mpk oral gavage, −6 h before LPS challenge
Procedure: Mouse Model of LPS-induced TNF Alpha Production:
TNF alpha was induced in 10-12 week old BALB/c female mice by tail vein injection with 100 ng lipopolysaccharide (from S. Typhosa) in 0.2 ml saline. One hour later mice were bled from the retroorbital sinus and TNF concentrations in serum from clotted blood were quantified by ELISA.
Efficacy was determined at each time point as percent inhibition of serum TNF levels relative to LPS injected mice that received vehicle only.
In vivo assessment of the ability of the compounds to inhibit LPS-stimulated TNP release in the mouse is shown in the column identified as: • “Mouse LPS Model, % TNF inhib @ dose @ predose time” wherein in the dose is milligram per kilogram (mpk) administered by oral gavage and the predose time indicates the number of hours before LPS challenge when the compound is administered.

[6] = activated human p38 kinase alpha, PHAS-I substrate, 50 μM unlabeled ATP, read-out: p38 kinase IC50
[7] = Table 5, LPS-stimulated U937 cells, TNF-α, read-out: U937 Cell Assay IC50
[8] = in vitro P38-alpha kinase inhibition, read-out: P38 alpha kinase IC50
[9] = in vitro P38-alpha kinase, read-out: P38 alpha kinase IC50

T1 sequence (Q16539 whole entry): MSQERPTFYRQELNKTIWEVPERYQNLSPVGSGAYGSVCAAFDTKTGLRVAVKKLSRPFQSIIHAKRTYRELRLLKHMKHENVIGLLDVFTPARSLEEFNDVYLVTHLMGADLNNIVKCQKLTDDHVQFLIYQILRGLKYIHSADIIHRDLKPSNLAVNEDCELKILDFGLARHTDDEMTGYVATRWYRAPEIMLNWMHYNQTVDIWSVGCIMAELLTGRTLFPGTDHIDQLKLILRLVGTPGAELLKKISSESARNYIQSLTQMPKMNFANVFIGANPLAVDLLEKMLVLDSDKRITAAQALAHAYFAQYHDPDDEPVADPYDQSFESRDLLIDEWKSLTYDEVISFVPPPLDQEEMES

Molecule: OC1CCN(c2[nH]nc(-c3ccc(F)cc3)c2-c2ccncc2)CC1 [Example A-379, 1-[5-(4-fluorophenyl)-4-(4-pyridinyl)-1H-pyrazol-3-yl]-4-piperidinol]
TNF Inhibition-Human Whole Blood Assay [1]: 44%

IC50 ([2]; PBMC): 200 nM
Molecule: Cc1[nH]nc(-c2ccc(Cl)cc2)c1-c1ccncc1 [Example 7, 4-(3-(4-chlorophenyl)-5-methyl-1H-pyrazol-4-yl)pyridine]

melting point: 153.46 °C
Molecule: CCn1nc(C)c(-c2ccncc2)c1-c1ccc(Cl)cc1 [Example A-207, 4-[3-(4-chlorophenyl)-2-ethyl-5-methyl-1H-pyrazol-4-yl]pyridine]

IC50 (human p38 kinase alpha; [6]): < 100 nM
IC50 [2]: < 100 nM
IC50 [3, 7]: 243 nM
Molecule: CCc1[nH]nc(-c2ccccc2)c1-c1ccncc1 [Example A-43]

melting point: 193.3 to 193.4 °C
Molecule: N#Cc1ccc(C(=O)C(=C2SCS2)c2ccncc2)cc1 [Example A-396]

melting point: 189.9 to 190.1 °C
Molecule: Clc1ccc(-c2n[nH]c(SCCN3CCCC3)c2-c2ccncc2)cc1 [Example A-460]

melting point: 218.17 °C
Molecule: Clc1ccc(-c2n[nH]cc2-c2ccncn2)cc1 [Example A-310, 4-[3-(4-chlorophenyl)-1H-pyrazol-4-yl]pyrimidine]

Molecule: Fc1ccc(-c2n[nH]c(N3CCC4(CC3)OCCO4)c2-c2ccncc2)cc1 [Example A-380, 8-[5-(4-fluorophenyl)-4-(4-pyridinyl)-1H-pyrazol-3-yl]-1,4-dioxa-8-azaspiro[4.5]decane]
TNF Inhibition-Human Whole Blood Assay [1]: 32%

IC50 ([2]; PBMC): < 100 nM
Molecule: CCc1[nH]nc(-c2cccc(C)c2)c1-c1ccncc1 [Example 45]

Molecule: O=C(c1ccc(F)cc1)N1CCC(c2[nH]nc(-c3ccc(F)cc3)c2-c2ccncc2)CC1 [Example B-1360]
inhibition in vivo at 3 mg/kg ([4]; Rattus norvegicus, po): 54%

Molecule: Cc1ccc(S(=O)(=O)NC(C)c2[nH]nc(-c3ccc(F)cc3)c2-c2ccncc2)cc1 (centres unmarked) [Example B-0576]
IC50 (human p38 kinase alpha; [8]): 68 nM
inhibition in vivo at 3 mg/kg ([4]; Rattus norvegicus, po): 65%

melting point: 163 to 165 °C
Molecule: O=C(O)C(Cc1cnc[nH]1)Sc1[nH]nc(-c2ccc(Cl)cc2)c1-c1ccncc1 (centres unmarked) [Example A-471]

IC50 (human p38 kinase alpha; [6]): 700 nM
IC50 [2]: < 100 nM
IC50 [3, 7]: 29 nM
Molecule: CCCc1[nH]nc(-c2cccc(C)c2)c1-c1ccncc1 [Example A-26]

Molecule: CC(NS(=O)(=O)c1ccc(Cl)s1)c1[nH]nc(-c2ccc(F)cc2)c1-c1ccncc1 (centres unmarked) [Example B-0650]
IC50 (human p38 kinase alpha; [8]): 6 nM
inhibition in vivo at 3 mg/kg ([4]; Rattus norvegicus, po): 8%

IC50 [2]: 6800 nM
Molecule: Cc1[nH]nc(-c2ccsc2)c1-c1ccncc1 [Example A-49]

melting point: 182.6 to 183 °C
Molecule: O=C(C(=C1SCS1)c1ccncc1)c1ccc(OC(F)(F)F)cc1 [Example A-395]

Molecule: O=C(C1CC1)N1CCC(c2[nH]nc(-c3ccc(F)cc3)c2-c2ccncc2)CC1 [Example B-1364]
IC50 (human p38 kinase alpha; [9]): 9 nM
IC50 ([3]; Homo sapiens, U-937, TNF production, human U937 cells stimulated with LPS, read-out: U937 Cell IC50): 270 nM
inhibition in vivo at 3 mg/kg ([4]; Rattus norvegicus, po): 17%
inhibition in vivo at 30 mg/kg ([5]; Mus musculus, read-out: Mouse LPS Model % TNF inhib @ dose @ predose time): 53%

Molecule: O=C1CCN(c2[nH]nc(-c3ccc(F)cc3)c2-c2ccncc2)CC1 [Example A-378, 1-[5-(4-fluorophenyl)-4-(4-pyridinyl)-1H-pyrazol-3-yl]-4-piperidinone]
TNF Inhibition-Human Whole Blood Assay [1]: 49%

Molecule: O=C(NCCCc1[nH]nc(-c2ccc(F)cc2)c1-c1ccncc1)C1CC1 [Example B-1166]
P38 alpha kinase % inhib @ conc. (uM) (human p38 kinase alpha): 77.0% @
Rat LPS Model % inhib @ dose @ predose time [4]: 50% @ 3 mpk @ −4 h
Mouse LPS Model % TNF inhib @ dose @ predose time [5]: 50% @ 30 mpk @ −6 h

Molecule: 5-[2-(1,1-DIMETHYL)AMINOETHYL]-4-(4-PYRIDYL)-3-(4-FLUOROPHENYL)PYRAZOLE [Example C-114]
IC50 ([1]; TNF production, human whole blood stimulated with LPS, read-out: Human Whole Blood IC50, μM or % Inhib @ conc. (μM): IC50): 1.73 µM

IC50 ([1]; Homo sapiens, Table 10, read-out: TNF Inhibition-Human Whole Blood Assay): 1.47 µM
Molecule: Clc1ccc(-c2n[nH]c(SCCOC3CCCCO3)c2-c2ccncc2)cc1 (centres unmarked) [Example A-474]

Molecule: CC(NS(=O)(=O)c1cccc(Cl)c1)c1[nH]nc(-c2ccc(F)cc2)c1-c1ccncc1 (centres unmarked) [Example B-0639]
IC50 (human p38 kinase alpha; [8]): 51 nM
inhibition in vivo at 3 mg/kg ([4]; Rattus norvegicus, po): 50%

Molecule: O=C(NCCCc1[nH]nc(-c2ccc(F)cc2)c1-c1ccncc1)c1ccc(F)cc1 [Example B-1161]
P38 alpha kinase % inhib @ conc. (uM) (human p38 kinase alpha): 64.0% 2
Rat LPS Model % inhib @ dose @ predose time [4]: 45% @ 3 mpk @ −4 h
Mouse LPS Model % TNF inhib @ dose @ predose time [5]: 40% @ 30 mpk @ −6 h

IC50 ([1]; Table 10, read-out: TNF Inhibition-Human Whole Blood Assay): 0.28 µM
Molecule: Clc1ccc(-c2n[nH]c(SC3CCNCC3)c2-c2ccncc2)cc1 [A-459 (salt)]

Molecule: COc1ccc(S(=O)(=O)NC(C)c2[nH]nc(-c3ccc(F)cc3)c2-c2ccncc2)cc1 (centres unmarked) [Example B-0574]
inhibition in vivo at 3 mg/kg ([4]; Rattus norvegicus, po): 37%

Molecule: CC(=O)N1CCC(c2[nH]nc(-c3ccc(F)cc3)c2-c2ccncc2)CC1 [Example B-1363]
IC50 (human p38 kinase alpha; [9]): 9 nM
Rat LPS Model % inhib @ dose @ predose time [4]: 53% @ 3 mpk @ −4 h
Mouse LPS Model % TNF inhib @ dose @ predose time [5]: 51.0% @ 30 pmk @

Molecule: COc1ccc(-n2nc(-c3ccc(F)cc3)c(-c3ccncc3)c2-c2cnc[nH]2)cc1 [Example A-323, 4-[3-(4-fluorophenyl)-5-(1H-imidazol-4-yl)-1-(4-methoxyphenyl)-1H-pyrazol-4-yl]pyridine]
inhibition in vivo at 30 mg/kg ([4]; Rattus norvegicus, po, read-out: Rat LPS Assay % Inhibition, Table 8, dose 30.0 mg/kg): 40%
melting point: 124 to 126 °C

Molecule: Fc1ccc(-c2n[nH]cc2-c2ccnc(NCCN3CCCCC3)c2)cc1 [Example A-375, 4-[3-(4-fluorophenyl)-1H-pyrazol-4-yl]-N-[2-(1-piperidinyl)ethyl]-2-pyridinamine]
TNF Inhibition-Human Whole Blood Assay [1]: 28%

Molecule: CC(NC(=O)C(C)(C)C)c1[nH]nc(-c2ccc(F)cc2)c1-c1ccncc1 (centres unmarked) [Example B-0601]
IC50 (human p38 kinase alpha; [8]): 89 nM
inhibition in vivo at 3 mg/kg ([4]; Rattus norvegicus, po): 43%
